Measurements from patent publication US20130310352A1, “DEXAMETHASONE COMBINATION THERAPY” (priority 2010, published 2013).

Legend:
[1] = system: MM cell lines ARP1, MM.1S and MM.1R; assay: Apoptosis with or without IL-6 addition; type: cell-based, human; conditions: 10 μM compound A, rhIL-6
Description: IL-6 is an important survival cytokine for MM (Klein B, Zhang X G, Jourdan M, et al. Interleukin-6 is the central tumor growth factor in vitro and in vivo in multiple myeloma. Eur Cytokine Netw. 1990; 1 (4):193-201; Gado K, Domjan G, Hegyesi H, Falus A. Role of INTERLEUKIN-6 in the pathogenesis of multiple myeloma. Cell Biol Int. 2000; 24 (4):195-209). […] For this purpose, different MM cell lines ARP1, MM.1S and MM.1R were cultured with or without recombinant hIL-6 (final concentration […]) and treated with or without 10 μM compound A for 2 days. As a positive control, MM.1S cells were treated with 40 μg/ml of dexamethasone with or without hIL-6 addition for the same period of time.
(§1) MM cell lines ARP1, MM.1S and MM.1R were cultured with 10 μM compound A for 3 days. rhIL-6 were added to final concentration of 5 ng/ml. As a positive control, MM.1S cells were treated with 40 μg/ml dexamethasone in the presence of 5 ng/ml of rhIL6 for the same time. Cells apoptosis rate was measured by annexin V staining. (B). Same MM cells were co-cultured with or without MM BMSC, and treated with 10 μM of compound A for 1 day. As a positive control, MM.1S cells were cocultured with or without BMSC and treated with 40 μg/ml dexamethasone for 1 day. CD138+ MM cells apoptosis rate was measured by Annexin V staining.

U266 = assay: Annexin V apoptosis assay; type: cell-based, human
Description: Apoptotic cells were determined as Annexin V positive cells. […] Compound A induced MM cells apoptosis were measured as described in Materials and Methods.

[2] = system: MM cells ARP1, MM.1S and MM.1R; assay: Low-dose single agents, apoptosis; type: cell-based, human; conditions: 1 μM compound A alone, 1 day
Description: Compound A-induced cell apoptosis was detected by Annexin V binding assay as previously described (Zheng Y, Cai Z, Wang S, et al. Macrophages are an abundant component of myeloma microenvironment and protect myeloma cells from chemotherapy drug-induced apoptosis. Blood. 2009; 114 (17):3625-3628). Briefly, MM cells were cultured in 24-well plates and treated with 0 to 1 mM final concentrations of compound A for 24 or 72 hours. The cells were washed twice with cold PBS and resuspended in Annexin V binding buffer (Invitrogen). MM cells were stained with FITC-conjugated Annexin V and propidium iodide (PI) for 15 min at room temperature. Apoptotic cells were determined as Annexin V positive cells.
Next, the experiment was extended to other MM cell lines, and they were treated with low compound A (1 μM) and dexamethasone (40 μg/ml).
ARP1 cells were treated with 10 μM compound A (BK), 15 nM melphalan (Me), 40 μg/ml dexamethasone (De), 100 μM lenalidomide (Le), 10 μM Bortizomib (BT), or their combinations for 1 day. The cell apoptosis were measured as described. […] Cell apoptosis was measured. […] Same MM cell lines were treated with compound A for 1 day and cell growth were measured by MTS. […] Cell apoptosis were measured by annexin V staining. […] Cells apoptosis rates were measured by annxin V staining. […]

ARP1 cells [3] = assay: Cell cycle analysis (PI, flow cytometry); type: cell-based, human; conditions: ARP1, 1 μM, 24 hours
Description: MM cell lines ARP1, MM.1S and MM.1R were cultured with or without 1 μM compound A for 24 hours. Then, cells were harvested and permeabilized in 70% ethanol at 4° C. for overnight, and incubated with 50 μg/ml PI and 20 μg/ml RNase A for 15 min. DNA content was analyzed by flow cytometry and FlowJo software.
To study the mechanism of compound A induced MM cells growth inhibition and apoptosis, it was examined whether compound A treatment affects MM cell cycle.
(A). Representative histogram of ARP1 treated with 1 μM compound A for 1 day. (B). […] Cell cycle was tested as described.

[4] = system: MM cell lines ARP1, MM.1S and MM.1R; assay: Apoptosis in coculture with BMSCs; type: cell-based, human; conditions: 10 μM compound A, 24 hours, BMSC coculture
Description: For this purpose, BMSCs isolated from MM patient were cocultured with MM cell lines ARP1, MM.1S and MM.1R. The cells were treated with or without 10 μM of compound A for 24 hours. As a positive control, MM.1S cells were cocultured with or without BMSC and treated with or without 40 μg/ml of dexamethasone for 24 hours. After treatment, the MM cells were identified as CD138+ cells by APC-CD138 staining.
as §1

[5] = system: MM cell lines ARP1, ARK, MM.1S, MM.1R and U266; assay: Annexin V apoptosis assay, MM cell lines; type: cell-based, human
Description: Briefly, MM cells were cultured in 24-well plates and treated with 0 to 1 mM final concentrations of compound A for 24 or 72 hours. The cells were washed twice with cold PBS and resuspended in Annexin V binding buffer (Invitrogen). MM cells were stained with FITC-conjugated Annexin V and propidium iodide (PI) for 15 min at room temperature. Apoptotic cells were determined as Annexin V positive cells.
To evaluate the effect of compound A on myeloma cells, MM cell lines ARP1, ARK, MM.1S, MM.1R and U266 were treated with different doses of compound A for 24 hours or 72 hours. Compound A induced MM cells apoptosis were measured as described in Materials and Methods.
Five MM cell lines ARP1, ARK, MM.1S, MM.1R and U266 were cultured in the presence of 0 to 1 mM compound A. Cells were harvested after 1 day or 3 days of treatment. Compound A induced MM cell apoptosis were measured by Annexin V staining as described in Materials and Methods. […] Same MM cell lines were treated with 0 to 1 mM compound A for 1 or 3 days. […] Representative histograms of primary MM cells treated with compound A. (D). […] Cells were treated with different doses of compound A for 1 day.

ARP1 cells [6] = assay: Established MM model in SCID mice; type: in vivo; conditions: 5 μmol per kg per day intraperitoneal, versus PBS control
Description: Six to eight week old female SCID mice were housed and monitored in MD. Anderson Cancer Center animal research facility. All experimental procedures and protocols had been approved by the Institutional Animal Care and Use Committee at The University of Texas M.D. Anderson Cancer Center. SCID mice were subcutaneously inoculated in the right flank with 1 million ARP1 cells suspended in 50 μl PBS. After palpable tumor developed (tumor diameters ≧5 mm), mice were treated with daily intraperitoneal injection of PBS or compound A (5 μmol per kg per day). Tumor sizes were measured every 5 days, and blood samples were collected with the same period. Tumor burdens were evaluated by measuring tumor size and detecting circulating human kappa chain.
Levels of human kappa chain in mice serum were measured by a quantitative ELISA (Bethyl Laboratories Inc) followed the vendor's protocol.
To examine compound A anti-MM effects in vivo, human MM model in SCID mice were established as described in Materials and Methods. When palpable tumors developed (≧5 mm diameters), mice (10 per group) received intraperitoneal injection of compound A (5 μmol per kg per day) or vehicle control PBS daily.
SCID mice were inoculated subcutaneously in the right flank with 1×10^6 ARP1 cells. Three to 4 weeks later when palpable tumors (≧5 mm in diameter) developed, mice (10 per group) were treated with intraperitoneal injections of PBS or compound A (100 nmol per mouse per day) daily. Tumor burdens were measured as (A) tumor volumes and (B) levels of circulating human kappa china in SCID mice sera detected by ELSA, and (C) survival of tumor-bearing mice.

## Nc1cc(C(F)(F)F)c(-c2cc(N3CCOCC3)nc(N3CCOCC3)n2)cn1 [compound A, 5-(2,6-di-morpholin-4-yl-pyrimidin-4-yl)-4-trifluoromethyl-pyridin-2-ylamine]
[1]
  effect of IL6 addition on compound A induced MM cell apoptosis: did not affect
U266
  sensitivity to compound A induced apoptosis compared to other MM cell lines: less sensitive
[2]
  cytotoxic effect of low dose alone: only limited cytotoxic effect
ARP1 cells [3]
  G1 phase cells: increased
  S phase cells: decreased
[4]
  effect of BMSCs on compound A induced MM cell apoptosis: did not protect
[5]; 0 to 1 mM, 24 hours or 72 hours, Annexin V
  MM cells apoptosis: in both a dose dependent and a time dependent manner
[5]; 24 hours, P<0.05 compared with control
  concentration inducing significant apoptosis in all tested MM cell lines: ≥ 10 µM
ARP1 cells [6]
  survival of tumor-bearing mice: significantly prolonged
ARP1 cells [6]; P<0.05
  tumor burden measured by tumor volume: significantly smaller tumor burdens
ARP1 cells [6]; P<0.05, ELISA
  tumor burden measured by level of circulating human kappa chain: significantly smaller tumor burdens
